In the oligonucleotide strings, read from the 5' end, every base follows the letter of its sugar. An asterisk marks phosphorothioate; unmarked linkages are phosphodiester. Other units and linkages are bracketed, terminal groups are in braces. A string of capitals states the bases alone. e = 2'-O-(2-methoxyethyl) (MOE); [5mC] = 5-methylcytosine; d = 2'-deoxy (DNA)
Experiments:
human Factor 7 mRNA [1] = test: Dose-dependent antisense inhibition of human Factor 7 in HepB3 cells, transfection with electroporation; type: cell-based
Method in brief: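 HepB3 cells, 20,000/well, electroporated with gapmers at 3.125–100 μM; about 16 h treatment. Factor 7 mRNA by qRT-PCR with primer probe set RTS 2927, normalized to RIBOGREEN total RNA; percent inhibition versus untreated cells.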

human Factor 7 mRNA [2] = test: Inhibition of human Factor 7 mRNA by 2-10-2 MOE shortmers in HepB3 cells, electroporation, 1,000 nM; type: cell-based; details: electroporation, 1,000 nM oligonucleotide, approximately 24 hours, relative to untreated control cells
Method in brief: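 14-mer 2-10-2 2′-MOE gapmers, full phosphorothioate, 5-methylcytidines, electroporated at 1,000 nM into HepB3 cells (20,000/well). After ~24 h, mRNA quantified by real-time RT-PCR, normalized to RIBOGREEN total RNA; percent inhibition relative to untreated cells.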

murine Factor 7 mRNA = test: Liver Factor 7 mRNA by real-time RT-PCR in treated BALB/c mice; type: in vivo, mouse; details: for % inhibition of murine Factor 7 mRNA: BALB/c liver; for % inhibition of murine Factor 7 mRNA / % inhibition of Factor 7 mRNA: relative to PBS control; for % inhibition of Factor 7 mRNA: liver; for % inhibition of Factor 7 mRNA (liver): mice
Procedure: A control group of mice was injected subcutaneously with PBS twice a week for 3 weeks. After the treatment period, whole liver was collected for RNA and protein analysis, and plasma was collected for clotting analysis (PT/aPTT).
(§1) RNA was extracted from liver tissue for real-time RT-PCR analysis of Factor 7.
A control group of 3 mice was injected with a single dose of PBS, and mice in this group were sacrificed on day 1. Mice in all groups were sacrificed by cervical dislocation following anesthesia with 150 mg/kg ketamine mixed with 10 mg/kg xylazine administered by intraperitoneal injection. Liver was harvested for RNA analysis and plasma was collected for clotting analysis (PT and aPTT).
as §1
Mice from the first group were sacrificed on days 1 and 3 after the single dose. […] A control group of 3 mice was injected with PBS in a single dose. Mice from the control group were sacrificed 1 day later. Mice in all groups were sacrificed by cervical dislocation following anesthesia with 150 mg/kg ketamine mixed with 10 mg/kg xylazine administered by intraperitoneal injection. Liver was harvested for RNA analysis and plasma was collected for clotting analysis (PT and aPTT) for mice in all groups.
RNA was extracted from liver tissue for quantitative RT-PCR analysis of Factor 7.
Two control groups of BALB/c mice were treated with PBS, administered subcutaneously twice a week for 3 weeks. Thrombus formation was induced with FeCl3 in half of the mice while the rest of the mice were assayed for tail bleeding. […] Thrombus formation was induced with FeCl3 in all groups of the VT mice except the first control group.
as §1
A fifth group of BALB/c mice was treated with 3 mg/kg of warfarin, administered intraperioneally daily for 6 days. Four hours after the last dose of warfarin, mice were sacrificed. A control group of BALB/c mice were treated with PBS, administered subcutaneously twice a week for 3 weeks. Two days after the last dose of PBS, mice were anesthetized with 150 mg/kg ketamine mixed with 10 mg/kg xylazine administered by intraperitoneal injection. Thrombus formation was induced with FeCl3 in groups of mice except the first control group.

[3] = 3.125 μM, 16 hours (Example 7, Table 15)
[4] = 3.125 μM, 16 hours (Example 8, Table 16)
[5] = 6.25 μM, 16 hours (Example 7, Table 15)
[6] = 6.25 μM, 16 hours (Example 8, Table 16)
[7] = 12.5 μM, 16 hours (Example 7, Table 15)
[8] = 12.5 μM, 16 hours (Example 8, Table 16)
[9] = 25 μM, 16 hours (Example 7, Table 15)
[10] = 25 μM, 16 hours (Example 8, Table 16)
[11] = 50 μM, 16 hours (Example 7, Table 15)
[12] = 50 μM, 16 hours (Example 8, Table 16)
[13] = 100 μM, 16 hours (Example 7, Table 15)
[14] = 100 μM, 16 hours (Example 8, Table 16)
[15] = single dose 50 mg/kg, BALB/c mice

## 407935 (antisense eA*eT*eG*e[5mC]*eA*dT*dG*dG*dT*dG*dA*dT*dG*d[5mC]*dT*eT*e[5mC]*eT*eG*eA) [compound 407935]
Human Factor 7 mRNA [1]; [3]
  percent inhibition of Factor 7 mRNA, relative to untreated control cells: 37%
Human Factor 7 mRNA [1]; [4]
  percent inhibition of Factor 7 mRNA, relative to untreated control cells: 63%
Human Factor 7 mRNA [1]; [5]
  percent inhibition of Factor 7 mRNA, relative to untreated control cells: 47%
Human Factor 7 mRNA [1]; [6]
  percent inhibition of Factor 7 mRNA, relative to untreated control cells: 79%
Human Factor 7 mRNA [1]; [7]
  percent inhibition of Factor 7 mRNA, relative to untreated control cells: 67%
Human Factor 7 mRNA [1]; [8]
  percent inhibition of Factor 7 mRNA, relative to untreated control cells: 84%
Human Factor 7 mRNA [1]; [9]
  percent inhibition of Factor 7 mRNA, relative to untreated control cells: 73%
Human Factor 7 mRNA [1]; [10]
  percent inhibition of Factor 7 mRNA, relative to untreated control cells: 90%
Human Factor 7 mRNA [1]; [11]
  percent inhibition of Factor 7 mRNA, relative to untreated control cells: 80%
Human Factor 7 mRNA [1]; [12]
  percent inhibition of Factor 7 mRNA, relative to untreated control cells: 90%
Human Factor 7 mRNA [1]; [13]
  percent inhibition of Factor 7 mRNA, relative to untreated control cells: 87%
Human Factor 7 mRNA [1]; [14]
  percent inhibition of Factor 7 mRNA, relative to untreated control cells: 91%

## 407939 (antisense eT*eG*e[5mC]*eA*eG*d[5mC]*d[5mC]*d[5mC]*dG*dG*d[5mC]*dA*d[5mC]*d[5mC]*d[5mC]*eA*eG*e[5mC]*eG*eA) [compound 407939]
Human Factor 7 mRNA [2]
  % inhibition of human Factor 7 mRNA: 81%
Human Factor 7 mRNA [1]; [3]
  percent inhibition of Factor 7 mRNA, relative to untreated control cells: 18%
Human Factor 7 mRNA [1]; [4]
  percent inhibition of Factor 7 mRNA, relative to untreated control cells: 35%
Human Factor 7 mRNA [1]; [5]
  percent inhibition of Factor 7 mRNA, relative to untreated control cells: 28%
Human Factor 7 mRNA [1]; [6]
  percent inhibition of Factor 7 mRNA, relative to untreated control cells: 60%
Human Factor 7 mRNA [1]; [7]
  percent inhibition of Factor 7 mRNA, relative to untreated control cells: 42%
Human Factor 7 mRNA [1]; [8]
  percent inhibition of Factor 7 mRNA, relative to untreated control cells: 60%
Human Factor 7 mRNA [1]; [9]
  percent inhibition of Factor 7 mRNA, relative to untreated control cells: 56%
Human Factor 7 mRNA [1]; [10]
  percent inhibition of Factor 7 mRNA, relative to untreated control cells: 73%
Human Factor 7 mRNA [1]; [11]
  percent inhibition of Factor 7 mRNA, relative to untreated control cells: 68%
Human Factor 7 mRNA [1]; [12]
  percent inhibition of Factor 7 mRNA, relative to untreated control cells: 81%
Human Factor 7 mRNA [1]; [13]
  percent inhibition of Factor 7 mRNA, relative to untreated control cells: 82%
Human Factor 7 mRNA [1]; [14]
  percent inhibition of Factor 7 mRNA, relative to untreated control cells: 83%

## CCATAGAACAGCTTCACAGG (sugars from the 5' end e5 d10 e5, backbone and methylation of C not given here) [ISIS 403102]
Murine Factor 7 mRNA; 5 mg/kg sc twice a week for 3 weeks
  % inhibition of murine Factor 7 mRNA: 64%
Murine Factor 7 mRNA; 10 mg/kg sc twice a week for 3 weeks
  % inhibition of murine Factor 7 mRNA: 84%
Murine Factor 7 mRNA; 25 mg/kg sc twice a week for 3 weeks
  % inhibition of murine Factor 7 mRNA: 96%
Murine Factor 7 mRNA; 50 mg/kg sc twice a week for 3 weeks
  % inhibition of murine Factor 7 mRNA: 99%
Murine Factor 7 mRNA; 5-50 mg/kg sc twice a week for 3 weeks, BALB/c mice
  reduction of murine Factor 7 (liver mRNA) over PBS control: dose-dependent reduction
Murine Factor 7 mRNA; BALB/c mice, single dose 50 mg/kg, day 1
  % Inhibition of murine Factor 7 mRNA (liver): 61%
Murine Factor 7 mRNA; BALB/c mice, single dose 50 mg/kg, day 2
  % Inhibition of murine Factor 7 mRNA (liver): 87%
Murine Factor 7 mRNA; BALB/c mice, single dose 50 mg/kg, day 3
  % Inhibition of murine Factor 7 mRNA (liver): 92%
Murine Factor 7 mRNA; BALB/c mice, single dose 50 mg/kg, day 4
  % Inhibition of murine Factor 7 mRNA (liver): 92%
Murine Factor 7 mRNA; BALB/c mice, single dose 50 mg/kg, day 6
  % Inhibition of murine Factor 7 mRNA (liver): 86%
Murine Factor 7 mRNA; BALB/c mice, single dose 50 mg/kg, day 8
  % Inhibition of murine Factor 7 mRNA (liver): 80%
Murine Factor 7 mRNA; BALB/c mice, single dose 50 mg/kg, day 12
  % Inhibition of murine Factor 7 mRNA (liver): 72%
Murine Factor 7 mRNA; BALB/c mice, single dose 50 mg/kg, day 24
  % Inhibition of murine Factor 7 mRNA (liver): 11%
Murine Factor 7 mRNA; BALB/c mice, single dose 50 mg/kg, day 56
  % Inhibition of murine Factor 7 mRNA (liver): 0%
Murine Factor 7 mRNA; Example 13, 6 doses of 25 mg/kg sc, days 14, 28, 42 and 56 after last dose
  Factor 7 inhibition over time: declined progressively
Murine Factor 7 mRNA; Example 13, single dose 25 mg/kg sc
  inhibition of Factor 7 mRNA, onset: inhibition of Factor 7 as early as day 1
Murine Factor 7 mRNA; Example 14, 25, 37.5 or 50 mg/kg sc twice a week for 3 weeks, FeCl3 VT model
  reduction of Factor 7 mRNA in comparison to the PBS control: significant dose-dependent reduction
Murine Factor 7 mRNA; Example 15, 5-40 mg/kg sc twice a week for 3 weeks
  reduction of Factor 7 mRNA in comparison to the PBS control: significant dose-dependent reduction
Murine Factor 7 mRNA; BALB/c mice, FeCl3 VT model (Example 15), 5 mg/kg s.c. twice a week for 3 weeks
  % inhibition of Factor 7 mRNA: 59%
Murine Factor 7 mRNA; BALB/c mice, FeCl3 VT model (Example 15), 10 mg/kg s.c. twice a week for 3 weeks
  % inhibition of Factor 7 mRNA: 84%
Murine Factor 7 mRNA; BALB/c mice, FeCl3 VT model (Example 15), 20 mg/kg s.c. twice a week for 3 weeks
  % inhibition of Factor 7 mRNA: 95%
Murine Factor 7 mRNA; BALB/c mice, FeCl3 VT model (Example 15), 40 mg/kg s.c. twice a week for 3 weeks
  % inhibition of Factor 7 mRNA: 99%
Murine Factor 7 mRNA; BALB/c mice, FeCl3 VT model, 25 mg/kg s.c. twice a week for 3 weeks
  % inhibition of Factor 7 mRNA: 24%
Murine Factor 7 mRNA; BALB/c mice, FeCl3 VT model, 37.5 mg/kg s.c. twice a week for 3 weeks
  % inhibition of Factor 7 mRNA: 74%
Murine Factor 7 mRNA; BALB/c mice, FeCl3 VT model, 50 mg/kg s.c. twice a week for 3 weeks
  % inhibition of Factor 7 mRNA: 69%
Murine Factor 7 mRNA; 25 mg/kg s.c. twice a week, 2 doses, 3 days after last dose
  % inhibition of Factor 7 mRNA (liver): 86%
Murine Factor 7 mRNA; 25 mg/kg s.c. twice a week, 4 doses, 3 days after last dose
  % inhibition of Factor 7 mRNA (liver): 91%
Murine Factor 7 mRNA; 25 mg/kg s.c. twice a week, 6 doses, 2 days after last dose
  % inhibition of Factor 7 mRNA (liver): 83%
Murine Factor 7 mRNA; 25 mg/kg s.c. twice a week, 6 doses, 7 days after last dose
  % inhibition of Factor 7 mRNA (liver): 88%
Murine Factor 7 mRNA; 25 mg/kg s.c. twice a week, 6 doses, 14 days after last dose
  % inhibition of Factor 7 mRNA (liver): 64%
Murine Factor 7 mRNA; 25 mg/kg s.c. twice a week, 6 doses, 28 days after last dose
  % inhibition of Factor 7 mRNA (liver): 33%
Murine Factor 7 mRNA; 25 mg/kg s.c. twice a week, 6 doses, 42 days after last dose
  % inhibition of Factor 7 mRNA (liver): 5%
Murine Factor 7 mRNA; 25 mg/kg s.c. twice a week, 6 doses, 56 days after last dose
  % inhibition of Factor 7 mRNA (liver): 11%
Murine Factor 7 mRNA; 25 mg/kg s.c., 1 dose, 1 day after last dose
  % inhibition of Factor 7 mRNA (liver): 44%
Murine Factor 7 mRNA; 25 mg/kg s.c., 1 dose, 3 days after last dose
  % inhibition of Factor 7 mRNA (liver): 74%
Murine Factor 7 mRNA; [15]
  duration of action: at least 24 days
  peak effect of a single dose occurs on: ~4 days
Murine Factor 7 mRNA; single dose 50 mg/kg, day 4
  inhibition of Factor 7 mRNA: 92%
Murine Factor 7 mRNA; single dose 50 mg/kg, day 24
  inhibition of Factor 7 mRNA: 11%
Murine Factor 7 mRNA; single dose 50 mg/kg, day 56
  Factor 7 mRNA levels: equal to that of the PBS control

— patent US20120214862A1, “MODULATION OF FACTOR 7 EXPRESSION” (ISIS Pharmaceuticals, Inc., priority 2009, published 2012)
